Data from US12410228B2, “Insulin analogs” (UNIVERSITY OF UTAH RESEARCH FOUNDATION, priority 2016, dated 2025).

Tests used:
hIR = hIR (Homo sapiens, UniProt P06213); test: hIR activation / insulin signalling activation by DOI analogues and venom insulins (Example 11, FIGS. 22-27); type: cell-based
[1] = relative to insulin; Bao et al. 1997; cited from earlier work
human IR-B = biological target: T1, human IR-B (Homo sapiens, UniProt P06213); test: cell-based
T1 construct: expressed in transfected cells; host or cells: NIH 3T3 mouse fibroblasts overexpressing human IR-B (puromycin selection)

human IR (isoform B) = biological target: T2, human IR (isoform B) (Homo sapiens, UniProt P06213); test: biochemical; type: binding
T2 construct: expressed in transfected cells; host or cells: R- IR-B cells, lysed with Triton X-100 and captured with anti-IR antibody 83-7; This comes from the general description of the Denley et al. 2004 format

fish = test: Effect on fish (injection or presence in the water); type: in vivo

For “DOI: monomeric analogue lacking residues 23 to 30 of the B chain of human insulin [reference compound]”, the “potency in hIR activation, comparison in words” value (hIR) is listed as “same”, the “potency relative to human insulin (fold weaker)” value (hIR; relative to human insulin) is listed as 1,000 fold and the bioactivity preserved [1] is listed as “less than 0.1%”.

With “quadruple DOI mutant: DOI analogue with A8 His, A9 Arg, B10 Glu and B20 Tyr; A chain SEQ ID NO: 39, B chain SEQ ID NO: 30” the “potency in hIR activation, comparison in words” value (hIR) was “comparable to that of human insulin”.

With “hIns[TyrB15, TyrB20, DOI]: des-octapeptide human insulin with Tyr at B15 and B20” the “activity in Akt phosphorylation assay relative to hIns[DOI]” value (human IR-B) was “ca five-fold more active”.

In the case of `CC[C@H](C)[C@@H]1NC(=O)[C@H](CC(C(=O)O)C(=O)O)NC(=O)[C@H](CO)NC(=O)CNC(=O)[C@@H](NC(=O)[C@H](CCCNC(=N)N)NC(=O)[C@H](Cc2c[nH]cn2)NC(=O)[C@H](CCCCN)NC(=O)[C@@H]2C[C@@H](O)CN2C(=O)[C@@H](NC(=O)[C@H](CC(=O)O)NC(=O)[C@H](Cc2ccccc2)NC(=O)[C@@H](N)[C@@H](C)O)[C@@H](C)O)CSSC[C@@H]2NC(=O)[C@@H](NC(=O)[C@H](Cc3c[nH]cn3)NC(=O)[C@H](CC(C(=O)O)C(=O)O)NC(=O)[C@@H](NC(=O)[C@@H](NC(=O)CN)C(C)C)C(C)C)C[Se][Se]C[C@H](NC(=O)[C@@H]3CCCN3C(=O)[C@H](CCCNC(=N)N)NC(=O)[C@H](Cc3c[nH]cn3)NC2=O)C(=O)N[C@@H](CO)C(=O)N[C@@H](CC(N)=O)C(=O)N[C@@H](C)C(=O)N[C@@H](CCC(=O)O)C(=O)N[C@@H](Cc2ccccc2)C(=O)N[C@@H](CCCCN)C(=O)N[C@@H](CCCCN)C(=O)N[C@@H](Cc2ccc(O)cc2)C(=O)N[C@H](C(N)=O)CSSC[C@@H](C(=O)N[C@@H](Cc2ccc(O)cc2)C(=O)N[C@@H](CCCNC(=N)N)C(=O)O)NC(=O)[C@H](CC(C)C)NC(=O)[C@H](CC(=O)O)NC(=O)[C@H](CCSC)NC(=O)[C@H](Cc2ccc(O)cc2)NC(=O)[C@H](CO)NC(=O)[C@H](CC(N)=O)NC(=O)[C@H]([C@@H](C)O)NC1=O` [sCon-Ins G1], the IC50 (human IR (isoform B)) is reported as 17.4 nM, the “activity / affinity at human IR relative to human insulin (fold less)” value (human IR (isoform B)) is reported as “thirty-fold less active” and the “activity against the human IR-B relative to PTM-free analogue” value (human IR (isoform B)) is reported as “four times more active”. For the same molecule, the EC50 (human IR-B) was 7.94 nM, the “efficiency of inducing Akt phosphorylation relative to PTM-free analogue” value (human IR-B) was “eight-fold greater efficiency” and the “hypoglycemic effect in fish” value (fish; injected into fish) was “induces hypoglycemic shock”. For the same molecule, the “effect on fish motility” value (fish; present in the water) was “slows fish motility”.
